Data reported in article PMC6944487, “Tandem Molecular Self-Assembly Selectively Inhibits Lung Cancer Cells by Inducing Endoplasmic Reticulum Stress” (Research, 2019).
Read-outs that look alike come from different tables or passages of the source. *1 amine or outer side, *2 acyl side, *3 side chain or, on linkers, in order; H or OH if unused. Where a SMILES comes first, the peptide text is derived from it. [ ]: non-standard residue; d: D form. The star is where a group is joined. X1 = O=C(c1ccc(/N=N/c2ccc(N[*:1])cc2)cc1)[*:2]; pY = N[C@@H](Cc1ccc(OP(=O)(O)O)cc1)C(=O)O; NBD = O=[N+]([O-])c1ccc(*)c2nonc12; βAla = NCCC(=O)O

Experiments:
[1] = tested on: A549 cells; test: Cell proliferation (SRB) assay, A549; type: cell-based, human
Procedure: (§1) PC-3, MCF-7, HeLa, U87, HPAEpiC, and A549 cells were purchased from the Type Culture Collection of the Chinese Academy of Sciences (Shanghai, China); PC-3, MCF-7, HeLa, U87, and A549 cells were cultured in Dulbecco's Modified Eagle's medium (DMEM) supplemented with 10% v/v fetal bovine serum (FBS), 100 U/mL penicillin, and 100 μg/mL streptomycin; HPAEpiC cells were cultured in RPMI 1640 Medium supplemented with 10% v/v fetal bovine serum, 100 U/mL penicillin, and 100 μg/mL streptomycin. All cells were at 37°C in a humidified atmosphere of 5% CO2.
(§2) In this experiment, all cell lines were incubated in a 96-well plate at a density of about 6000. According to previous method, cell was fixed by cold 10% trichloroacetic acid solution at 4°C overnight after incubated with compound for 48 h. Then, discarding the fixative solution and washed by water for three times, put the 96-well plate in a 37°C oven to dry. Next, 0.4% SRB solution was used to stain cell for 20 min at room temperature to form protein-bound dry, then using 1% AcOH solution to clean excessive SRB. Put the 96-well plate in a 37°C oven to dry and add 10 mM Tris base solution of 100 μL every well to solubilize the protein-bound dry for 30 min. Measure the OD at 570 nm in a microplate reader.

[2] = tested on: A549 cells; test: Mitochondrial colocalization / cytoplasmic vacuolization, ER stress (CLSM, Mito-Tracker); type: cell-based, human; conditions: 200 μM, 10-12 h
Procedure: (§3) A549 cells was seeded in CLSM cultural dish at a density of 1 × 10^5 cells. After incubation for 12 h, a medium was removed. The cells were then incubated with Comp. 1, 2, 4, or 5 (200 μM) for 1 or 4 h (lysosome colocation). Cells were incubated with Comp. 1 (200 μM) for 8, 10, and 12 h (mitochondrial colocation). Next, the medium containing different compound was removed and washed by PBS for three times, and lysosome tracker (1×) was incubated with cells for 45 min. The medium was removed and the cells were washed by PBS three times. 1-2 mL of DMEM was added for imaging by live cell imaging systems (λexc. = 488 nm, emission = 510‐560 nm; λexc. = 543 nm, emission = 650‐750 nm). Mito-Tracker (1×) was incubated with cells for 30 min. The medium was then removed and washed by PBS three times. 1-2 mL of DMEM was added for imaging by live cell imaging systems (λexc. = 488 nm, emission = 510‐560 nm; λexc. = 633 nm, emission = 650‐750 nm, all test conditions are consistent).

[3] = tested on: reductase (rat liver microsomes); test: in vitro; type: in vitro ADME; conditions: pH 7.4
Procedure: (§4) The Comp. […] 1. […] We thereafter added the enzyme ALP (1 U·mL^−1) to the PBS solution of Comp. 1 at 37°C, and the solution remained clear after 12 h (Figure 2(a)). […] 1 had been converted to Comp. 2 within 6 h (Figures 2(a) and ). Accordingly, the nanofibers with a diameter of 6–10 nm formed in the resulting solution of Comp. 2 (Figure 2(c)). With the addition of rat liver microsomes (226 μg·mL^−1) and NADPH (50 equiv.) to trigger the conversion from azobenzene to aniline, a yellowish precipitate was clearly observed within 24 h (Figure 2(b)). […] 2 had been converted into Comp. 3 within 24 h (Figures 2(b) and ). […] 2 and Comp. 3. […] The above observations strongly indicated the tandem molecular self-assembly behavior of Comp. 1 with the catalysis by ALP and reductase.
(§5) […] of Comp. 1 was dissolved in 500 μL of PBS (pH = 7.4) as a stock solution (PBS was bubbled by Argon for 30 min in advance). The concentration of the stock solution was 200 μM. Na2CO3 (1 M) was added to the above solution to adjust the final pH to 7.4. The solution was incubated at 37°C. The alkali phosphatase (1 U/mL) was then added to the solution for 12 hours at 37°C to trigger the first step of self-assembly. After that, rat liver microsomes (226 μg/mL) and NADPH (50 equiv.) were added for 24 hours at 37°C to trigger the second step of self-assembly.

[4] = tested on: A549 xenograft tumors; test: In vivo antitumor assay, A549 xenograft; parameters: species or system BALB/c nude mice; conditions: 5 mg/kg i.v. once every three days, tumors at day 15
Procedure: (§6) A549 cells were maintained in our lab. The BALB/c nude (6 weeks old, female) mice purchased from Beijing Vital River Laboratory Animal Technology Co., Ltd. were used. 5 × 10^7 A549 cells (100 μL) mixed with growth factor-reduced Matrigel (50 μL, BD Biosciences) were subcutaneously injected into the right flank of each mouse. The drug treatment was started when tumor volume reached 80 mm^3; the tumor volume was calculated by the formula: length∗width^2/2. Mice (n = 5) received compounds 1, 2, 4, and 5 (5.0 mg/kg) in PBS by i.v. injection, whereas the control group (n = 5) received PBS only. The compound was injected every three days. The mice were weighed, and tumors were measured every two days during the treatment period.
The mice were sacrificed to obtain tumor tissues; tumor tissues were fixed by 4% formalin over 48 h, embedded in paraffin, cut into 5-6 μm sections for H&E staining, and evaluated using light microscopy as previously described method.

[5] = tested on: A549 cells; test: Lysosome colocalization (CLSM, Lyso-Tracker); type: cell-based, human; conditions: 200 μM; for lysosomal escape: 4 h, Lyso-Tracker; for mean fluorescence intensity in cells (versus cells treated with Comp. 4 and Comp. 5): A549 cells
Procedure: as §3

[6] = tested on: HeLa cells; test: Cell proliferation (SRB) assay, HeLa; type: cell-based; conditions: 48 h incubation, n = 3
Procedure: as §1, §2

[7] = Body weight of treated tumor-bearing mice; type: in vivo, BALB/c nude mice; conditions: 5 mg/kg i.v. once every three days
Procedure: as §6

[8] = tested on: A549 cells; test: JC-1 staining, mitochondrial membrane potential; type: cell-based, human; conditions: 200 μM, 4 h time point
Procedure: Mitochondrial membrane potential was assessed by staining with JC-1 dye (5,50,6,60-tetrachloro-1,10,3,30-tetraethylbenzimidazol-carbocyanine iodide) (abcam). 1 × 10^4 A549 cells per well, seeded in 96-well plates, were treated with Comp.1 (200 μM) for different time points and FCCP (100 μM) for 4 h. After treatment, a medium was removed and the cells were then incubated in 100 μL PBS containing JC-1 dye (20 μM) for 15 min at 37°C and subsequently washed with PBS for three times. The red fluorescence (λexc. = 543 nm, emission = 570‐620 nm) was determined by a microplate reader (BioTek).
A549 cells were seeded in CLSM cultural dish at a density of 1 × 10^5 cells. After incubation for 12 h, a medium was removed. The cells were then incubated with Comp. 1 (200 μM) at different time points. The cells also were incubated with FCCP (100 μM) for 4 h as the positive control group. Then, removing medium, JC-1 staining kit (20 μM) was incubated with A549 cells for 15 min. The medium was removed, and the cells were washed by PBS three times. 1 mL of PBS was added for imaging by live cell imaging systems (green channel (depolarization) λexc. = 488 nm, emission = 500 − 540 nm; red channel (hyperpolarization) λexc. = 543 nm, emission = 570‐620 nm, all test conditions are consistent).

[9] = tested on: T1, alkaline phosphatase (ALP); test: Conversion by alkaline phosphatase (LC-MS); type: in vitro ADME; conditions: alkaline phosphatase (ALP) in PBS; ALP 1 U/mL, 200 μM in PBS pH 7.4, 37°C, within 6 h, LC-MS trace; read-out: Comp. 1 converted to Comp. 2
T1 construct: purchased Takara D2250
Procedure: as §4, §5

[10] = tested on: MCF-7 cells; test: Cell proliferation (SRB) assay, MCF-7; type: cell-based; conditions: 48 h incubation, n = 3
Procedure: as §1, §2

[11] = tested on: different cell lines; test: Cell uptakes; type: cell-based; conditions: 200 μM, 6 h, cell lysate OD 488 nm, n = 3
Procedure: Cells were incubated in 12-well plates at a density of 10 × 10^6 cells. The cell cultural medium containing 200 μM of each compound was added to the cells, and the upper medium was removed at 6 h time point. Cells were washed for three times with PBS or DMEM. After being treated with cell lysis solution (1 mL per well contained 200 μL DMSO) for 15 min, the solutions were centrifuged at […] for 10 min. The amount of compound in the upper solution was determined by a microplate reader at OD of 488 nm (Bio-Rad Mark^TM, America).

[12] = Critical aggregation concentration (CAC) by dynamic light scattering; type: physicochemical; conditions: DLS, light scattering intensity per concentration, PBS pH 7.4
Procedure: The synthesized compounds were characterized by 1H NMR (Bruker ARX-400) using DMSO-d6 as the solvent. HPLC was conducted at the LUMTECH HPLC (Germany) system using a C18 RP column with methanol (0.05% of TFA) and water (0.05% of TFA) as the eluents. LC-MS was conducted at the LCMS-20AD (Shimadzu) system. HR-MS was performed at the Agilent 6520 Q-TOF LC/MS using ESI-L low concentration tuning mix (Lot No. LB60116 from the Agilent Tech.). CMC values and size distribution of micelles were determined by dynamic light scattering (DLS); this experiment was conducted on a laser light scattering spectrometer (BI-200SM, Brookhaven, USA). The morphology conversion of the peptide derivatives was measured by TEM performed on a Tecnai G2 F20 system, operating at 200 kV. Cellular uptake and drug tracking images were taken by a confocal laser scanning microscopy (Leica TSC SP8, Germany).
The CAC value of compounds 1, 2, 4, and 5 in PBS solution (pH = 7.4) was determined by dynamic light scattering (DLS), and the light scattering intensity was recorded for each concentration analyzed.

[13] = tested on: U87 cells; test: Cell proliferation (SRB) assay, U87; type: cell-based; conditions: 48 h incubation, n = 3
Procedure: as §1, §2

[14] = tested on: PC-3 cells; test: Cell proliferation (SRB) assay, PC-3; type: cell-based; conditions: 48 h incubation, n = 3
Procedure: as §1, §2

[15] = Appearance of solution in PBS; type: physicochemical; conditions: 200 μM (0.03 wt%) in PBS pH 7.4
Procedure: as §4, §5

[16] = tested on: normal human alveolar epithelial cells (HPAEpiC); test: Cell proliferation (SRB) assay, HPAEpiC; type: cell-based; conditions: 48 h incubation, n = 3
Procedure: as §1, §2

[17] = SRB, 48 h incubation, mean ± SEM n = 3, read-out: IC50 in A549 cells

N=C(N)NCCC[C@H](NC(=O)[C@H](CCC(=O)O)NC(=O)CNC(=O)[C@H](Cc1ccc(O)cc1)NC(=O)[C@H](Cc1ccccc1)NC(=O)[C@H](Cc1ccccc1)NC(=O)CNC(=O)CCNc1ccc([N+](=O)[O-])c2nonc12)C(=O)NCC(=O)N[C@@H](CC(=O)O)C(=O)O [Comp. 5, NBD-GFFYGERGD] ({NBD-βAla}-GFFYGERGD-OH)
IC50 ([1]; 48 h): > 500 µM

N=C(N)NCCC[C@H](NC(=O)[C@H](CCC(=O)O)NC(=O)c1ccc(/N=N/c2ccc(NC(=O)CNC(=O)[C@H](Cc3ccc(O)cc3)NC(=O)[C@H](Cc3ccccc3)NC(=O)[C@H](Cc3ccccc3)NC(=O)CNC(=O)CCNc3ccc([N+](=O)[O-])c4nonc34)cc2)cc1)C(=O)NCC(=O)N[C@@H](CC(=O)O)C(=O)O [Comp. 2, NBD-GFFYG-N=N-ERGD] ({NBD-βAla}-GFFYG[X1]ERGD-OH)
ER stress / cytoplasmic vacuolization [2]: only caused slight ER stress
metabolised at 24 h, 200 μM [3]: > 70%
H&E histology of tumor tissue [4]: underwent apoptosis
IC50 [1, 17]: 82.7 µM
lysosomal escape [5]: small fraction of lysosomal escape
mean fluorescence intensity in cells (versus cells treated with Comp. 4 and Comp. 5) [5]: significantly higher

N=C(N)NCCC[C@H](NC(=O)[C@H](CCC(=O)O)NC(=O)CNC(=O)[C@H](Cc1ccc(OP(=O)(O)O)cc1)NC(=O)[C@H](Cc1ccccc1)NC(=O)[C@H](Cc1ccccc1)NC(=O)CNC(=O)CCNc1ccc([N+](=O)[O-])c2nonc12)C(=O)NCC(=O)N[C@@H](CC(=O)O)C(=O)O [Comp. 4, NBD-GFFpYGERGD] ({NBD-βAla}-GFF[pY]GERGD-OH)
IC50 [1, 17]: > 500 µM

N=C(N)NCCC[C@H](NC(=O)[C@H](CCC(=O)O)NC(=O)c1ccc(/N=N/c2ccc(NC(=O)CNC(=O)[C@H](Cc3ccc(OP(=O)(O)O)cc3)NC(=O)[C@H](Cc3ccccc3)NC(=O)[C@H](Cc3ccccc3)NC(=O)CNC(=O)CCNc3ccc([N+](=O)[O-])c4nonc34)cc2)cc1)C(=O)NCC(=O)N[C@@H](CC(=O)O)C(=O)O [Comp. 1, NBD-GFFpYG-N=N-ERGD] ({NBD-βAla}-GFF[pY]G[X1]ERGD-OH)
ER stress / cytoplasmic vacuolization [2]: massive cytoplasmic vacuolization
IC50 [6]: ~74.7 µM
body weight change [7]: did not exhibit a loss of body weight
mitochondrial membrane potential (JC-1) [8]: caused mitochondrial depolarization
H&E histology of tumor tissue [4]: severely apoptotic
metabolised at 6 h, 200 μM [9]: > 95%
IC50 [10]: ~15.9 µM
cellular uptake in different cells [11]: no significant differences
IC50 [1, 17]: ~2.49 µM
lysosomal escape [5]: efficiently escaped from the late endosomes/lysosomes
mean fluorescence intensity in cells (versus cells treated with Comp. 4 and Comp. 5) [5]: significantly higher
critical aggregation concentration (CAC) [12]: 263.6 µM
IC50 [13]: ~5.07 µM
IC50 [14]: ~20.5 µM
appearance of solution [15]: clear solution
IC50 [16]: ~40.1 µM
